From US5494925A, “2-heterocyclyloxymethyl and 2-heterocyclylthiomethyl-1,2,5-thiadiazolidin-3-one 1,1-dioxides and compositions and method of use thereof” (Sterling Winthrop Inc., priority 1994, dated 1996)

Molecular target: T1, human leukocyte elastase (Homo sapiens, UniProt P08246)
T1 sequence (P08246 30-267): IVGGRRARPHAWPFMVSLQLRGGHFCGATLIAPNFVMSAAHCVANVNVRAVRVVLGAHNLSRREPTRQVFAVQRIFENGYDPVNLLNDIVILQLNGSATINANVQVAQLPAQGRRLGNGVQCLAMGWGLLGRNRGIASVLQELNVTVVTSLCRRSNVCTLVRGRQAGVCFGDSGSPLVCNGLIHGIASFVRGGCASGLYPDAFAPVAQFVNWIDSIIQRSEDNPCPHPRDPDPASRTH
Assay: human leukocyte elastase inhibition, progress curves with MeOSuc-Ala-Ala-Pro-Val-pNA
Type: biochemical
Conditions: HLE; substrate MeOSuc-Ala-Ala-Pro-Val-pNA; pH 7.8, 25° C.; 410 nM absorbance; read-out: inhibition constant Ki
Protocol: The test compound (inhibitor) is dissolved in DMSO in a vial to produce an inhibitor stock solution which has a concentration in the range of 200-1000 μM. The inhibitor stock solution is diluted (1:4, 1:16 and 1:64) into assay vials (vials 1, 2 and 3 respectively) containing 2.4 mL of buffer solution (50 mM N-[2-hydroxyethyl]piperazine-N'-[2-ethanesulfonic acid]/NaOH, 500 mM NaCl, pH 7.8 at 25° C.) and DMSO is added so that the total volume in each vial is 3.2 mL. 70 μL, 50 μL, 35 μL and 25 μL of inhibitor from assay vial 1 is placed into the first four wells of a 96-well microtiter plate and each well is made up to 90 μL total volume with the addition of a 25% DMSO/buffer solution. The inhibitor from assay vials 2 and 3 is processed in a similar manner and placed in wells 5-12 respectively to afford a total of 12 different inhibitor concentrations. Four wells (wells 13-16) containing 90 μL of the 25% DMSO/buffer solution but no inhibitor are also run simultaneously with the inhibited wells as a control. 150 μL of substrate solution (prepared by the addition of 500 μL of the human leukocyte elastase (HLE) substrate MeOSuc-Ala-Ala-Pro-Val-pNA (18.7 mM in DMSO) to 19.5 mL of buffer solution) is then added simultaneously into each of the 16 wells and the solution in each well was thoroughly mixed.
The 96-well microtiter plate is placed into a Microplate Reader #89815A spectrophotometer and 110 μL of the enzyme solution (prepared as follows: a mixture of 20 mL of buffer solution and 20 mg of bovine serum albumen is gently vortexed in a scintillation vial and 5 μL HLE stock solution (1 mg/mL dissolved in deionized water) is added) is added simultaneously to each of the 16 wells. Each of the solutions in the wells is thoroughly mixed and then the time-dependent absorbance data is collected at an absorbance of 410 nm until the assay is complete. It should be noted that although this assay method can be done manually, it is preferred to perform the assay robotically using a Hewlett Packard MicroAssay System Robot.
A plot of the absorbance versus time data thus obtained affords progress curves the final slope of which is equal to the final steady-state velocities (VF). Using the program ENZFITTER (Elsevier software), the progress curves for the four control assays ([I]=0) are fit by linear regression to yield the enzyme reaction velocity values in the absences of inhibitor (Vo) which are averaged to produce a single fixed value. The inhibition constant Ki (nM) is then obtained from a plot of [formula] which affords a linear plot wherein: [formula] and [S] is the concentration of the substrate and Km is the Michaelis constant.
Table V summarizes the results obtained from the testing of representative compounds of the invention for human leukocyte elastase inhibitory activity.

Ki [nM] | Structure (SMILES)
540 | O=C1C2CCCN2S(=O)(=O)N1CSc1nnnn1-c1ccccc1 (centres unmarked) [19 (f), 2-(1-phenyl-1H-tetrazol-5-yl-thiomethyl)tetrahydropyrrolo[1,2-b]-1,2,5-thiadiazol-3 (2H)-one 1,1-dioxide]
11 | CCCC1C(=O)N(CSc2nnnn2-c2ccccc2)S(=O)(=O)N1CC (centres unmarked) [5 (i), 2-(1-phenyl-1H-tetrazol-5-yl-thiomethyl)-4-propyl-5-ethyl-1,2,5-thiadiazolidin-3-one 1,1-dioxide]
180 | CCCC1NS(=O)(=O)N(CSc2nnnn2-c2ccccc2)C1=O (centres unmarked) [1 (f), 2-(1-phenyl-1H-tetrazol-5-yl-thiomethyl)-4-propyl-1,2,5-thiadiazolidin-3-one 1,1-dioxide]
85 | O=C1C2CCCCN2S(=O)(=O)N1CSc1nnnn1-c1ccccc1 (centres unmarked) [18 (f), 2-(1-phenyl-1H-tetrazol-5-yl-thiomethyl)-1,2,5-thiadiazolo [2,3-a]3,3a,4,5,6,7-hexahydropyridine-3-one 1,1-dioxide]
2.4 | CC(C)CCC1C(=O)N(COc2cc(C(F)(F)F)nn2-c2ccccc2)S(=O)(=O)N1C (centres unmarked) [6 (j), 2-(1-phenyl-3-trifluoromethyl-pyrazol-5-yloxymethyl)-4-(3-methylbutyl)-5-methyl-1,2,5-thiadiazolidin-3-one 1,1-dioxide]
200 | CC(C)C1C(=O)N(CSc2nnnn2-c2ccccc2)S(=O)(=O)N1C (centres unmarked) [4 (f), 2-(1-phenyl-1H-tetrazol-5-yl-thiomethyl)-4-isopropyl-5-methyl-1,2,5-thiadiazolidin-3-one 1,1-dioxide]
3.6 | CCCC1C(=O)N(CSc2nnnn2-c2ccccc2)S(=O)(=O)N1C (centres unmarked) [3 (h), 2-(1-phenyl-1H-tetrazol-5-yl-thiomethyl)-4-propyl-5-methyl-1,2,5-thiadiazolidin-3-one 1,1-dioxide]
3000 | CC(C)C1NS(=O)(=O)N(CSc2nnnn2-c2ccccc2)C1=O (racemic) [2 (f), 2-(1-phenyl-1H-tetrazol-5-yl-thiomethyl)-4-isopropyl-1,2,5-thizdizolidin-3-one 1,1-dioxide]
